Data on one molecule can be found in paper PMC7864197, “High-Content Analysis-Based Sensitivity Prediction and Novel Therapeutics Screening for c-Met-Addicted Glioblastoma” (Cancers, 2021).

Structures are written as SMILES.

The experiment addresses c-Met (MET kinase) (Homo sapiens, UniProt P08581). In words: ADP-Glo MET kinase enzyme system (in vitro kinase assay). In kind it is biochemical. (In general: In ADP-Glo the light output rises with the ADP produced.)

Chain of c-Met (MET kinase) (P08581 25-307): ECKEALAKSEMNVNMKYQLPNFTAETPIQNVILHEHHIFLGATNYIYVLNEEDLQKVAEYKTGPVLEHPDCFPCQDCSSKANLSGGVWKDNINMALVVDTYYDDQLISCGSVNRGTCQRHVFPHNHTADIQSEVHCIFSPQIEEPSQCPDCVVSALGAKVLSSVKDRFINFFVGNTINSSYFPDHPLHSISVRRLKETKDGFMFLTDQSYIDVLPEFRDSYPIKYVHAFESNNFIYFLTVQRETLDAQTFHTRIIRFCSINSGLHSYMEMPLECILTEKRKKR
Chain of c-Met (MET kinase) (P08581 308-1390): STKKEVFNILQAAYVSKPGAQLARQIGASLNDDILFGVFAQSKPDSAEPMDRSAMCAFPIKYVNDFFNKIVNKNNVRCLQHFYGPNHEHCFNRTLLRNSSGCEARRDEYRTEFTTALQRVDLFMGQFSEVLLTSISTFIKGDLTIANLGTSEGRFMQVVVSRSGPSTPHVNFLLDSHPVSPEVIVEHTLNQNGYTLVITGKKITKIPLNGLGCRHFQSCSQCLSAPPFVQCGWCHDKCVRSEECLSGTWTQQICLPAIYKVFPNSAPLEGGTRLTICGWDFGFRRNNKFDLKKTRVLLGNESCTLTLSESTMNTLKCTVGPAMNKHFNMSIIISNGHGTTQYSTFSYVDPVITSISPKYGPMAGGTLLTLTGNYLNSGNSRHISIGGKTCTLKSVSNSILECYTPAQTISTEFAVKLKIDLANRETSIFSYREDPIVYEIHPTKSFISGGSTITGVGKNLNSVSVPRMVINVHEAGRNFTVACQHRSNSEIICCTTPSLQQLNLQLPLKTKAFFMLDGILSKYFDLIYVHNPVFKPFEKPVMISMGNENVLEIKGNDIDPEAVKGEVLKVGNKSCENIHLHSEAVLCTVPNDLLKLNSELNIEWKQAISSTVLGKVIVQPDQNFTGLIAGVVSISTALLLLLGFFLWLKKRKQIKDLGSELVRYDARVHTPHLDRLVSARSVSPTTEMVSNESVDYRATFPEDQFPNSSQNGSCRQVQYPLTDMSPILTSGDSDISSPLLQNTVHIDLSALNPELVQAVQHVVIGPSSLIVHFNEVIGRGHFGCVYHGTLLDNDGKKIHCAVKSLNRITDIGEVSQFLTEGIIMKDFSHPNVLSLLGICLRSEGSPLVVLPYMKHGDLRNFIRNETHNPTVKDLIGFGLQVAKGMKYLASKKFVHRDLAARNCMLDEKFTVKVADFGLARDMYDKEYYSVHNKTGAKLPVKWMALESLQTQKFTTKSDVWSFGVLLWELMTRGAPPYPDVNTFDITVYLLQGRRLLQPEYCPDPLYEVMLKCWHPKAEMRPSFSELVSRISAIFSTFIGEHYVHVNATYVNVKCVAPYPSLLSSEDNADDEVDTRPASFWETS

As to `CCN1CCN(Cc2ccc(Nc3ncc(F)c(-c4cc(F)c5nc(C)n(C(C)C)c5c4)n3)nc2)CC1` [Abemaciclib], the “ADP-Glo MET kinase enzyme system (in vitro kinase assay)” value is given as “abemaciclib was shown to inhibit kinase activity of c-Met at high concentrations”.
